Measurements: PMC7470982 (2020)

Columns and labels:
[1] = system: Fpy39 (DNA, i motif) CAGCCCCGCTCCCGCCCCCTTCCTCCCGCGCCCGCCCCT; assay: MST; details: 100 mM KCl, potassium phosphate 60 mM; 1× BPES (1 mM EDTA), pH 5.5, 25 °C
[2] = system: bio-VEGF (DNA, i motif) GACCCCGCCCCCGGCCCGCCCCGG; assay: SPR; details: 100 mM KCl; 20 mM MES, pH 5.5, 25 °C; immobilised DNA
[3] = system: FKRAST (DNA, i motif) GCCCGGCCCCCGCTCCTCCCCCGCCGGCCCGGCCCGGCCCCCTCCTTCTCCCCG; assay: FRET melting; details: 100 mM KCl, potassium phosphate 60 mM; 1× BPES, pH 5.5; 0.2 μM DNA, 4 μM compound
[4] = system: py39 (DNA, i motif) CAGCCCCGCTCCCGCCCCCTTCCTCCCGCGCCCGCCCCT; assay: CD melting; details: 100 mM KCl, potassium phosphate 60 mM; 1× BPES, pH 5.5; 1 μM DNA, 20 μM compound
[5] = system: py39 (DNA, i motif) CAGCCCCGCTCCCGCCCCCTTCCTCCCGCGCCCGCCCCT; assay: TO fluorescent intercalator displacement; details: K+ (1x BPES: 100 mM KCl, potassium phosphate); 1x BPES pH 5.5; 1 μM DNA, 1 μM thiazole orange displaced
[6] = system: FVEGFT (DNA, i motif) GACCCCGCCCCCGGCCCGCCCCGG; assay: FRET melting; details: 100 mM KCl, potassium phosphate 60 mM; 1× BPES, pH 5.5; 0.2 μM DNA, 4 μM compound
[7] = system: Fpy39T (DNA, i motif) CAGCCCCGCTCCCGCCCCCTTCCTCCCGCGCCCGCCCCT; assay: FRET melting; details: 100 mM KCl, potassium phosphate 60 mM; 1× BPES, pH 5.5; 0.2 μM DNA, 4 μM compound
[8] = system: bio-py27 (bio-C-MYC) (DNA, i motif) CCTTCCCCACCCTCCCCACCCTCCCCA; assay: SPR; details: 100 mM KCl; 20 mM MES, pH 5.5, 25 °C; immobilised DNA
[9] = system: Fpy27T (F-C-MYC-T) (DNA, i motif) CCTTCCCCACCCTCCCCACCCTCCCCA; assay: FRET melting; details: 100 mM KCl, potassium phosphate 60 mM; 1× BPES, pH 5.5; 0.2 μM DNA, 4 μM compound
[10] = system: GC duplex (py39+pu39) (DNA, duplex) CAGCCCCGCTCCCGCCCCCTTCCTCCCGCGCCCGCCCCT/AGGGGCGGGCGCGGGAGGAAGGGGGCGGGAGCGGGGCTG; assay: TO fluorescent intercalator displacement; details: 20 mM NaCl; 20 mM Tris-HCl, pH 7.4; 1 μM DNA, 1 μM thiazole orange displaced
[11] = system: Fpy27 (DNA, i motif) CCTTCCCCACCCTCCCCACCCTCCCCA; assay: MST; details: 100 mM KCl, potassium phosphate 60 mM; 1× BPES (1 mM EDTA), pH 5.5, 25 °C
[12] = system: KRAS (DNA, i motif) GCCCGGCCCCCGCTCCTCCCCCGCCGGCCCGGCCCGGCCCCCTCCTTCTCCCCG; assay: CD melting; details: 100 mM KCl, potassium phosphate 60 mM; 1× BPES, pH 5.5; 1 μM DNA, 20 μM compound
[13] = system: hairpin (DNA, hairpin) CGCGCGCGTTTTCGCGCGCG; assay: TO fluorescent intercalator displacement; details: 1 μM DNA, 1 μM thiazole orange displaced
[14] = system: FC-KITT (DNA, i motif) CCCTCCTCCCAGCGCCCTCCCT; assay: FRET melting; details: 100 mM KCl, potassium phosphate 60 mM; 1× BPES, pH 5.5; 0.2 μM DNA, 4 μM compound
[15] = system: VEGF (DNA, i motif) GACCCCGCCCCCGGCCCGCCCCGG; assay: CD melting; details: 100 mM KCl, potassium phosphate 60 mM; 1× BPES, pH 5.5; 1 μM DNA, 20 μM compound
[16] = system: py27 (C-MYC) (DNA, i motif) CCTTCCCCACCCTCCCCACCCTCCCCA; assay: ITC; details: 100 mM KCl, potassium phosphate 60 mM; 1× BPES (1 mM EDTA), pH 5.5, 25 °C; fitted to 1:1 model
[17] = system: bio-hairpin (DNA, hairpin, HEG (non-nucleotide) linker between nucleotides 10 and 11) TATAGCTATATATAGCTATA; assay: SPR; details: 100 mM KCl; 20 mM Tris-HCl, pH 7.4, 25 °C; immobilised DNA
[18] = system: py39 (DNA, i motif) CAGCCCCGCTCCCGCCCCCTTCCTCCCGCGCCCGCCCCT; assay: ITC; details: 100 mM KCl, potassium phosphate 60 mM; 1× BPES (1 mM EDTA), pH 5.5, 25 °C; fitted to 1:1 model
[19] = system: pu39 (DNA, G4) AGGGGCGGGCGCGGGAGGAAGGGGGCGGGAGCGGGGCTG; assay: TO fluorescent intercalator displacement; details: K+ (100 mM KCl); 20 mM Tris-HCl pH 7.4; 1 μM DNA, 1 μM thiazole orange displaced
[20] = system: C-KIT (DNA, i motif) CCCTCCTCCCAGCGCCCTCCCT; assay: CD melting; details: 100 mM KCl, potassium phosphate 60 mM; 1× BPES, pH 5.5; 1 μM DNA, 20 μM compound
[21] = system: py27 (C-MYC) (DNA, i motif) CCTTCCCCACCCTCCCCACCCTCCCCA; assay: CD melting; details: 100 mM KCl, potassium phosphate 60 mM; 1× BPES, pH 5.5; 1 μM DNA, 20 μM compound
[22] = system: bio-py39 (DNA, i motif) CAGCCCCGCTCCCGCCCCCTTCCTCCCGCGCCCGCCCCT; assay: SPR; details: 100 mM KCl; 20 mM MES, pH 5.5, 25 °C; immobilised DNA
[23] = system: bio-C-KIT (DNA, i motif) CCCTCCTCCCAGCGCCCTCCCT; assay: SPR; details: 100 mM KCl; 20 mM MES, pH 5.5, 25 °C; immobilised DNA

Cc1ccc2c(c1)c(=O)c1cc(C(=O)NCCCN3CCOCC3)ccc1n2-c1ccc(C(=O)NCCCN2CCOCC2)cc1
KD [1]: 4.69 µM | KD [2]: 36.4 µM | ΔTm [3]: 1.17 °C | ΔTm [4]: 9.63 °C | relative TO displacement ratio [5]: 52% | ΔTm [6]: -0.64 °C | ΔTm [7]: 9.15 °C | KD [8]: 11.95 µM | ΔTm [9]: 3.50 °C | relative TO displacement ratio [10]: 6% | KD [11]: 10.95 µM | ΔTm [12]: 1.03 °C | relative TO displacement ratio [13]: 12% | ΔTm [14]: -0.52 °C | ΔTm [15]: 1.34 °C | KD [16]: 11.1 µM | KD [17]: > 50 µM | KD [18]: 5.52 µM | relative replacement ratio [19]: 10% | ΔTm [20]: 0.20 °C | ΔTm [21]: 4.26 °C | KD [22]: 3.56 µM | KD [23]: 34.5 µM
